Values quoted from earlier work as cited in paper PMC7721954, “Preclinical comparison of four [^18F, ^natGa]rhPSMA-7 isomers: influence of the stereoconfiguration on pharmacokinetics” (EJNMMI Research, 2020).
Read-outs that look alike come from different tables or passages of the source.

What was measured:
[1] = set-up: method as in PMID 16888726, doi:10.1016/j.jfluchem.2010.10.008; settings: cited from earlier work
[2] = target: T1, human serum albumin (Homo sapiens, UniProt P02768); settings: Chiralpak HSA column, cited from earlier work
T1 construct: purchased
T1 sequence (P02768 25-609): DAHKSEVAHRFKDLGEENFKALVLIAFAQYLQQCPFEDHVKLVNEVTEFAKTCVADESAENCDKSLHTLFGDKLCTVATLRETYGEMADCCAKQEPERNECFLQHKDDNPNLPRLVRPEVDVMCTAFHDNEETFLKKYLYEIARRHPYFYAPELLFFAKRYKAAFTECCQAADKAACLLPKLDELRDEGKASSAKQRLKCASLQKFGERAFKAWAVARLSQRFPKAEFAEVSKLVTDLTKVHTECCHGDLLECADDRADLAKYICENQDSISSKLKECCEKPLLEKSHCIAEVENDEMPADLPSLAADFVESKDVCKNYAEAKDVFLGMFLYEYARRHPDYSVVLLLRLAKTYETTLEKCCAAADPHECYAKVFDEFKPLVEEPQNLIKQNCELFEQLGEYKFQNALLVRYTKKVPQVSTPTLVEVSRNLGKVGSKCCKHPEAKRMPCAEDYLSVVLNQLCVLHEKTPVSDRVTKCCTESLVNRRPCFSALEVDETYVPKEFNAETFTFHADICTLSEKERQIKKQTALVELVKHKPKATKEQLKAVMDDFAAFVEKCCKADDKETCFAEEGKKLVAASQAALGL

[3] = n-octanol/PBS pH 7.4, cited from earlier work
[4] = test system: LNCaP cells; settings: 1 h, 37 °C, percentage of reference ligand ([125I]I-BA)KuE, n = 3; cited from earlier work
[5] = target: T2, PSMA (Homo sapiens, UniProt Q04609); settings: LNCaP cells, 1 h, 4 °C, n = 3; read-out: IC50 (binding affinity); cited from earlier work
T2 construct: host or cells: LNCaP cells
T2 sequence (Q04609 whole entry): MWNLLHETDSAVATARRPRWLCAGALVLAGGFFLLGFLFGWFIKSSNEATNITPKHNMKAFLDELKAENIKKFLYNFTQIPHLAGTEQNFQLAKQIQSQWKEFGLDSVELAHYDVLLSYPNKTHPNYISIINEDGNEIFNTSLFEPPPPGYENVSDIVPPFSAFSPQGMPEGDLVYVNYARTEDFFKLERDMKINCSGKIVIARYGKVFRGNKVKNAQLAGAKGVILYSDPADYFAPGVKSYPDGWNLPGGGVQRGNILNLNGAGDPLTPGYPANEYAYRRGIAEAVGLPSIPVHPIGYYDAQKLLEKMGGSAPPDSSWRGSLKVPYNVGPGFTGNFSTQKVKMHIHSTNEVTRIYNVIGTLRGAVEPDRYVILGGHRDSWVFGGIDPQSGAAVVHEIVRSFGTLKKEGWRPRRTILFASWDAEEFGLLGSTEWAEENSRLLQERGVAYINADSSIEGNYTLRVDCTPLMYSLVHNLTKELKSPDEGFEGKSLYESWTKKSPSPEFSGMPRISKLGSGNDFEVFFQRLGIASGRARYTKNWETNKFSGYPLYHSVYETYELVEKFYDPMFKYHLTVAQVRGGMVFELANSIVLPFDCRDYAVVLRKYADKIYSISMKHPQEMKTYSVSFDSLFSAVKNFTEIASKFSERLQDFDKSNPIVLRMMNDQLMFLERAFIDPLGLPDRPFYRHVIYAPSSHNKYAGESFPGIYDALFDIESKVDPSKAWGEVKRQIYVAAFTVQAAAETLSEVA

## CC(C)(C)[Si](F)(c1ccc(C(=O)O)cc1)C(C)(C)C [SiFA-moiety, 4-(di-tert-butylfluorosilyl)benzoic acid]
[1]
  log P: 3.6

## O=C(O)CC[C@H](NC(=O)N[C@@H](CCCCNC(=O)c1ccc(F)nc1)C(=O)O)C(=O)O [[^18/19F]DCFPyL]
[2]
  HSA-binding: 14%
[3]; listed as [^18F]DCFPyL
  Lipophilicity Log D: -3.4 ± 0.03
[4]
  Internalization (internalized activity): 118 ± 4 % of reference

## O=C(O)CC[C@H](NC(=O)N[C@@H](CCCCNC(=O)[C@H](Cc1ccc2ccccc2c1)NC(=O)c1ccc(CNC(=O)[C@H](CCC(=O)O)NC(=O)[C@H](CCC(=O)O)NC(=O)c2ccc(F)nc2)cc1)C(=O)O)C(=O)O [[^18/19F]PSMA-1007]
[5]
  IC50: 4.2 ± 0.5 nM

## O=C(O)CC[C@H](NC(=O)N[C@@H](CCCCNC(=O)[C@H](Cc1ccc2ccccc2c1)NC(=O)c1ccc(CNC(=O)[C@H](CCC(=O)O)NC(=O)[C@H](CCC(=O)O)NC(=O)c2ccc([18F])nc2)cc1)C(=O)O)C(=O)O [[^18/19F]PSMA-1007]
[2]
  HSA-binding: 98%
[2]; listed as [^19F]PSMA-1007
  HSA-binding: > 96%
[3]; listed as [^18F]PSMA-1007
  Lipophilicity Log D: -1.6 ± 0.02
[4]
  Internalization (internalized activity): 118 ± 5 % of reference
